Values quoted from earlier work, collected in patent US20010053381A1, “System and method for treating kidney diseases in diabetic and non-diabetic patients” (priority 2000, published 2001).

Columns and labels:
[1] = system: patients with type 1 DM and diabetic nephropathy

## insulin [CIIIT]
Patients with type 1 DM
  blood pressure control: improve blood pressure control substantially
  reduction of antihypertensive medication requirements: 46%
[1]; 37 months, type 1 DM patients
  progression of overt diabetic nephropathy: arrest or appreciably reduce the progression
[1]; baseline, 31 patients with type 1 DM and diabetic nephropathy
  Creatinine clearance at baseline: 46.1 ± 3.0 mL/min
[1]; end of observation period (37 months), 31 patients with type 1 DM and diabetic nephropathy
  Creatinine clearance at the end of the observation period: 46.0 ± 3.9 mL/min
[1]; value after decline during the study period, P=0.0062
  hemoglobin Alc levels, after study period: 7.6±0.3%
[1]; value before decline, patients with type 1 DM and diabetic nephropathy
  hemoglobin Alc levels, start of study period: 8.6±0.6%
